Patent US12599591B2, “Vemurafenib and salts thereof for use in the treatment of enteroviral infections” (Jyväskylän yliopisto, priority 2018, dated 2026)

Key:
Echovirus 1 (EV1) = type: cell-based, Farouk strain
[1] = test system: Coxsackie virus A9 (CVA9); assay: CVA9 infection of A549 cells, cell viability (CTG assay / crystal violet); type: cell-based, Griggs strain; conditions: 18 h post infection
Experimental: (§1) FIG. 1. […] A549 cells were treated for 1 h with different concentrations of vemurafenib before Echovirus 1 (EV1), Coxsackie virus B3 (CVB3) or Coxsackie virus A9 (CVA9) infection, and vemurafenib was present after addition of viruses. Further, non-infected control cells were included. After 18 h post infection, the cell viability was determined by cell viability Glo-titer assay according to the instructions by the manufacturer (CTG assay, which measures cellular ATP levels, Promega; left figure) or crystal violet staining as described before (right figure; Martikainen et al., 2015). Values are means±SD.
(§2) Adenocarcinoma human alveolar basal epithelial (A549, ATCC) cells were cultured in Dulbecco's modified eagle medium (DMEM; Gibco) supplemented with 10% fetal bovine serum (FBS; Gibco), 1% Glutamax (Gibco) and 1% penicillin and streptomycin antibiotics (Gibco) for 24 h. […] In addition, non-infected control cells were included. After 18 h post infection (p.i.), the cell viability was determined by cell titer-Glo assay according to the instructions by the manufacturer (CTG assay, which measures cellular ATP levels, Promega; left figure) or crystal violet staining as described before (right figure; Martikainen et al. 2015). Values are means±SD.

[2] = test system: Coxsackie virus B3 (CVB3); assay: CVB3 infection of A549 cells, cell viability (CTG assay / crystal violet); type: cell-based, Nancy strain; conditions: 18 h post infection
Experimental: as §1, §2

[3] = test system: Coxsackie virus B (CVB) serotypes (1-6); assay: CVB serotypes 1-6 infection of A549 cells, crystal violet viability; type: cell-based; conditions: 18 h of infection, dose dependent
Experimental: FIG. 2. […] Different concentrations of vemurafenib were tested against different Coxsackie virus B (CVB) serotypes (1-6) by treating A549 cells with the drug for 1 h and then infecting the cells with the viruses. Cell viability was determined after 18 h of infection using crystal violet staining. The results were normalized to control sample with no virus infection and 0 μM concentration of vemurafenib (CTRL). The values are means±SD.
Finally, the cell viability was determined using crystal violet staining. The results were normalized to control sample with no virus infection and 0 μM concentration of vemurafenib (CTRL). The values are means±SD.

[4] = test system: CVB4 E2 diabetogenic strain; assay: CVB4 infection of Min-6 pancreatic beta cells, crystal violet viability; type: cell-based; conditions: mouse pancreatic beta cell line Min-6, 0.25-7.5 μM, MOI of 1, crystal violet
Poliovirus 3 = type: cell-based, polio-3 (vaccine strain); conditions: A549 cells, 2 days of infection, Cell Titer Glo
CV-B4 E2 = assay: CVB4 infection in mice, infectious viral titer in heart and pancreas; type: in vivo, Hsd:ICR(CD-1) female mice; conditions: 10 mg/kg intraperitoneally once a day for 5 days, sacrificed on day 6
EV1-infected A549 cells = type: cell-based, human
CVB4 = assay: Persistent CVB4 infection of Panc-1 cells, viral titers and viral RNA; type: cell-based; conditions: 7.5 μM each 2 to 3 days
[5] = test system: human parechovirus 1 (HPEV1); type: cell-based; conditions: A549 cells, 5 μM, 6 h
[6] = test system: semliki forest virus (SFV); type: cell-based; conditions: Hela cells, 5 or 10 μM, 6 h
[7] = test system: vesicular stomatitis virus (VSV); type: cell-based
[8] = test system: respiratory syncytial virus (RSV); type: cell-based; conditions: Hela cells, 5 or 10 μM, 20 h
EV1 [9] = assay: Time of addition assay, EV1 infection of A549 cells, VP1 labeling; type: cell-based; conditions: EV1, 5 μM, infection followed until 6 h p.i.
EV1 [10] = assay: EV1 replication in A549 cells by dsRNA (J2) labeling; type: cell-based; conditions: 5 μM, 3, 4 or 6 h p.i.
EV1 IRES = type: cell-based, EV1 Farouk strain; conditions: Hela cells, 5 μM, 24 h
HPEV1 IRES = type: cell-based, HPEV1 strain 22 Harris; conditions: Hela cells, 5 μM, 24 h
viral protease 2A = viral protease 2A (Coxsackievirus B3, UniProt P03313); assay: Viral protease 2A action on PABP in Hela cell homogenate, western blotting; type: biochemical; conditions: 5, 10 or 20 μM, RT for 18 h
Chain of viral protease 2A (P03313 852-1001): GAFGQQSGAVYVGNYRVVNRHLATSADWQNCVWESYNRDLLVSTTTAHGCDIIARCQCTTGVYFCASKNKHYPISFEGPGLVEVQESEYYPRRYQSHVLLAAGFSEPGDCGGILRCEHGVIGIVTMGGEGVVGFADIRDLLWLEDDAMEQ
Experimental: (§3) FIG. 18. […] The results were detected by western blotting and known cellular targets for 2A and 3C, poly A binding protein (PABP) and stress granule assembly factor 1 (G3BP1) respectively, were immunolabeled. The results are representative of two separate experiments.
(§4) The reaction was carried out in buffer containing 20 mM HEPES (pH 7.4), 0.12 M KCH3COO, 4 mM Mg(CH3COO)2 and 5 mM DTT with or without vemurafenib (5, 10 or 20 μM) being present. The reactions were carried out at RT for 18 h, after which they were terminated by adding Laemmli sample buffer and heating at 100° C. for 9 min. The samples were run in 4-20% Miniprotean TGX stain free gel (Biorad). The gel was UV-activated for 5 min with Chemidoc MP (Biorad) to reveal the total protein amount, after which the proteins were transferred to PVDF membrane (Immobilon-P, Merck Millipore). Next, the blot was blocked o/n with 5% BSA in 0.05% tween in TBS. Poly A binding protein (PABP) was detected using 1:100 dilution of mouse anti-PABP (Santa Cruz). Stress granule assembly factor 1 G3BP1 was detected using 1:1000 dilution of mouse anti-G3BP1 (Santa Cruz).

viral protease 3C = viral protease 3C (Coxsackievirus B3, UniProt P03313); assay: Viral protease 3C action on G3BP1 in Hela cell homogenate, western blotting; type: biochemical; conditions: 5, 10 or 20 μM, RT for 18 h
Chain of viral protease 3C (P03313 1541-1723): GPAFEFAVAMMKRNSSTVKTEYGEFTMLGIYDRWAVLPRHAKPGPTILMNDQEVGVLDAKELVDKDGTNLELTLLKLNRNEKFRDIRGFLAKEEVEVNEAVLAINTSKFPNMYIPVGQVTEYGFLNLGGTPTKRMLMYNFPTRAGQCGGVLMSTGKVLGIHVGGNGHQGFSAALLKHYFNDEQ
Experimental: as §3, §4

3D polymerase of CVB3 = 3D polymerase of CVB3 (Coxsackievirus B3, UniProt P03313); assay: RNA elongation assay with viral 3D polymerase; type: biochemical; conditions: various inhibitor concentrations, RT
Chain of 3D polymerase of CVB3 (P03313 1724-2185): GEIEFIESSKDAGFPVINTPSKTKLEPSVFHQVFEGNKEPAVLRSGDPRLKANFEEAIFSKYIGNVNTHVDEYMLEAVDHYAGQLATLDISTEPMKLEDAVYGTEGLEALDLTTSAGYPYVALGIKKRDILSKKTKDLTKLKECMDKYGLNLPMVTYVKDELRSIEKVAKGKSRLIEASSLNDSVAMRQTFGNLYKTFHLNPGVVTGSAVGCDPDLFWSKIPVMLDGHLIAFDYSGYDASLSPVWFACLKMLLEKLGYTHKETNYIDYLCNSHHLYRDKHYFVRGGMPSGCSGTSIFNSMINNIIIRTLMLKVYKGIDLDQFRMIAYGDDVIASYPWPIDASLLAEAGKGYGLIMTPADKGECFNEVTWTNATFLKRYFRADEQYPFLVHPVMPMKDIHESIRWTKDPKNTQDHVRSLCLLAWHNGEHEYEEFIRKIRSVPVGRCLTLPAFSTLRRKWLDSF
Experimental: FIG. 19. […] An RNA elongation assay was used to study the effect of vemurafenib on viral 3D polymerase. […] At 15 min, GTP and ATP were added along with RNA2 (SEQ ID NO:2) allowing 3D+RNA1 complexes to incorporate ATP and GTP (forming +2 product) as well as initiate and incorporate GTP and RNA2 (forming +1 product). After 10 min, each reaction was “chased” to fully elongated product by adding the remaining NTPs.
An RNA elongation assay was used to study the effect of vemurafenib on viral 3D polymerase. […] At 15 min, GTP and ATP were added along with RNA2 (SEQ ID NO: 2) allowing 3D+RNA1 complexes to incorporate ATP and GTP (forming +2 product) as well as initiate and incorporate GTP and RNA2 (forming +1 product). After 10 min, each reaction was “chased” to fully elongated product by adding the remaining NTPs.

influenza A(H1N1)pdm09 = conditions: reported by McKimm-Breschkin et al.; cited from earlier work
adenovirus 5 = assay: Adenovirus 5 GFP transduction of A549 cells; conditions: 5 μM, 17 h
[11] = test system: human rhinovirus B14 (HRVB14); assay: HRVB14 replication in Hela cells by dsRNA (J2) labeling; conditions: 5 μM, 6 h at +34° C.
EV1 RNA = assay: Transfection of EV1 genomic RNA into A549 cells, VP1 labeling; conditions: 5 μM, 6 h
EV1 particle = assay: Real-time spectroscopic assay of EV1 particle opening (Sybr green II); conditions: 5 μM, 3 h at +37° C.
EV1 [12] = assay: Uncoating of radioactively labeled EV1 in endosomes of A549 cells, sucrose gradients; conditions: 5 μM, 4 h p.i.
[13] = 1 h pre-treatment, dose dependent

## CCCS(=O)(=O)Nc1ccc(F)c(C(=O)c2c[nH]c3ncc(-c4ccc(Cl)cc4)cc23)c1F [vemurafenib, N-(3-(5-(4-chlorophenyl)-1H-pyrrolo[2,3-b]pyridine-3-carbonyl)-2,4-difluorophenyl)propane-1-sulfonamide]
Echovirus 1 (EV1)
  effect on EV1 infection (cell viability): prevents the infection
[1]; [13]
  effect on CVA9 infection (cell viability): rescued the cells
[1]
  concentration of maximal inhibition of CVA9 infection: 5 µM
[2]; [13]
  effect on CVB3 infection (cell viability): rescued the cells
[2]
  concentration of maximal inhibition of CVB3 infection: 5 µM
[3]
  effect on infection by CVB serotypes 1 to 6 (cell viability): inhibited
[4]
  effect on CVB4 infection of Min-6 cells (cell viability): efficiently rescued
Poliovirus 3
  effect on polio-3 infection (cell viability): efficiently rescued
CV-B4 E2
  levels of infectious CVB4 in heart tissue: significantly decreased
  levels of infectious CVB4 in pancreas tissue: significantly decreased
EV1-infected A549 cells
  effects on BRAF in the transcriptomics study: no effects
EV1-infected A549 cells; A549 cells, 6 h pi, Illumina Human HT-12 v4
  effect on EV1-induced up- or downregulation of mRNAs: attenuated almost all the effects of the virus
CVB4; qPCR at day 7, 9, 14 and 21
  presence of viral RNA in persistently infected Panc-1 cells: totally eradicated
CVB4; supernatant titers on HEp-2 cells
  level of infectious viral particles (capsid) in persistently infected Panc-1 cells: totally eradicated
[5]
  effect on HPEV1 infection (VP1 positive cells): not effective
[6]
  effect on SFV infection (GFP infection percentage): not effective
[7]
  effect on VSV infection (GFP infection percentage): not effective
[8]
  effect on RSV infection (GFP infection percentage): not effective
EV1 [9]
  time of administration at which efficacy is lost: ≥ 3 h p.i.
EV1 [10]
  effect on EV1 replication (replication intermediate, dsRNA): prevented
EV1 IRES
  effect on EV1 IRES-based translation (mCherry fluorescence): does not have direct effects
HPEV1 IRES
  effect on HPEV1 IRES-based translation (mCherry fluorescence): does not have direct effects
Viral protease 2A
  effect on viral protease 2A action (PABP): does not have direct effects
Viral protease 3C
  effect on viral protease 3C action (G3BP1): does not have direct effects
3D polymerase of CVB3
  effect on CVB3 3D polymerase action: does not prevent its action, nor binding or elongation of the nascent RNA chain
Influenza A(H1N1)pdm09
  efficacy against influenza A(H1N1)pdm09 infection compared with oseltamivir: greater efficacy than oseltamivir
Adenovirus 5
  effect on adenovirus 5 transduction (GFP positive cells): not effective
[11]
  effect on HRVB14 replication (dsRNA J2 intensity): decreases the replication
EV1 RNA
  effect on infection after transfection of genomic RNA of EV1: totally prevented infection
EV1 particle
  direct virucidal effect on EV1 particle (genome release): does not have direct virucidal effects
EV1 [12]
  effect on uncoating of EV1 inside endosomes: does not affect the uncoating
